Molecules are shown by their SMILES. Some results are limits rather than exact numbers.

The conditions of the series: rat; liver microsomes; pH 7.4; 15.0 min; 1.0 µM. (In general: Liver microsomes are vesicles of endoplasmic reticulum, rich in cytochrome P450 enzymes.)
The term half-life denotes how long it takes for the measured level to halve. A higher half-life goes with slow loss. The compound `Cc1nnc(N2C(=O)c3oc4ccccc4c(=O)c3C2c2ccc(F)cc2)s1` (configuration not stated) registered a half-life above 30 min.
`CC(C)(C)C1CCc2nc(NC(=O)c3cccc(Cl)c3)sc2C1` (configuration not stated) returned a half-life of 20 min.
Take `Cc1ccc(S(=O)(=O)Nc2ccccc2C(=O)Nc2ccc(-c3ccccc3)nc2)cc1`: the half-life amounted to 2.7 min.
Then `COc1ccc(C2Nc3ccccc3C(=O)N2Cc2ccco2)cc1` (configuration not stated), with 1.6 min; and `C[C@]12CC[C@@H]3[C@H](CCC4=CC(=O)CC[C@]43C)[C@]1(O)CC[C@@]2(O)C(=O)CO`, with 20.9 min; and `Fc1ccc(CN2CCNc3cc(Nc4ccccc4)ncc3C2)cc1F`, with 2.28 min.
The compound `N#Cc1cc(NC(=O)Nc2nnc(-c3ccncc3)s2)ccc1-c1cn[nH]c1` yielded a half-life above 30 min.
`Fc1cccc(CN2CCNc3cc(Nc4ccccc4)ncc3C2)c1` gave a half-life of 1.14 min.
`CC[C@H]1NC(=O)[C@@H](NC(=O)c2ncccc2O)[C@@H](C)OC(=O)[C@H](c2ccccc2)NC(=O)[C@@H]2CC(=O)CCN2C(=O)[C@H](Cc2ccccc2)N(C)C(=O)[C@@H]2CCCN2C1=O` yielded a half-life above 30 min.
Then `CCN1CCN(c2ccc3cc(S(=O)(=O)N4CCOCC4)ccc3n2)CC1`, with 16 min.
Then `Cc1ccccc1S(=O)(=O)N1CCCC(CCC(=O)NCCN(C)C2CCCCC2)C1` (configuration not stated), with 2.16 min; and `CC[C@H](NC(=O)c1c(O)c(-c2ccccc2)nc2ccccc12)c1ccccc1`, with above 30 min; and `Cc1nc2sccn2c(=O)c1S(=O)(=O)Nc1ccc(N2CCN(S(C)(=O)=O)CC2)cc1`, with above 30 min.
Then `Cc1ccc(S(=O)(=O)Nc2ccccc2C(=O)Nc2nc(-c3ccccc3)cs2)cc1`, with 2.4 min; and `COc1ccc(-n2nc(C3CCCN(C(=O)c4ccccc4)C3)[nH]c2=O)cc1` (configuration not stated), with above 30 min; and `Cc1ccnc(NC(=S)N2CCC(c3cccc(C(F)(F)F)c3)CC2)c1`, with 24 min.
Turning to `COc1ccc(Nc2cnc3ccc(-c4ccc(OC)c(OC)c4)nn23)cc1`, the half-life worked out at 6.77 min.
With `Cc1cc(C)nc(NC(=S)N2CCN(c3cccc(OC(F)F)c3)CC2)c1`, the half-life is above 30 min.
Compound `COC(=O)[C@@]12OC[C@]34[C@H]([C@@H](O)[C@@H]1O)[C@@]1(C)CC(=O)C(O)=C(C)[C@@H]1C[C@H]3OC(=O)[C@H](OC(=O)/C=C(\C)C(C)C)[C@@H]24` displayed a half-life of 10.1 min.
Then `Cc1cccc(NCc2ccc(O)c3ncccc23)c1`, with 2.2 min; and `Cc1ccc(S(=O)(=O)Nc2cnccc2C(=O)NCc2ccccc2)cc1`, with 5.9 min.
For `Cc1noc(C)c1-c1csc(N2CCC(C(N)=O)CC2)n1`, the half-life is above 30 min.
In the case of `CC(C)OC(=O)c1ccnc2cc(C(OCCN3CCCCC3)c3ccccc3Cl)sc12` (configuration not stated), the half-life is 4.49 min.
Then `CCc1nnc(NC(=O)c2nc(S(=O)(=O)Cc3ccc(C)cc3)ncc2Cl)s1`, with 7.58 min.
`O=C(NCc1ccc(S(=O)(=O)c2cccc(C(F)(F)F)c2)cc1)c1cnc2[nH]ncc2c1` yielded a half-life above 30 min.
`COc1ncccc1-c1cc2c(ccn2CC2CCN([S+](C)(=O)[O-])CC2)c(N2CCOCC2)n1` showed a half-life of 13.9 min.
Then `Fc1cc(Nc2nc(-c3ccncc3)nc3ccccc23)ccc1N1CCNCC1`, with above 30 min; and `O=C(Nc1nc(-c2ccc(F)cc2)cs1)c1ccncc1NS(=O)(=O)c1ccccc1Cl`, with above 30 min.
In turn, `COc1ccc(-n2nc(C3CCCN(CC4CCCCC4)C3)[nH]c2=O)cc1` (configuration not stated) yielded a half-life above 30 min.
Then `Nc1cc2nc3ccccc3oc-2cc1=O`, with 8.63 min; and `O=C(NCC1CCOCC1)C1CC(=O)N(c2n[nH]c3cc(Br)ccc23)C1` (configuration not stated), with above 30 min.
Then `COc1ccc(S(=O)(=O)N2CCCCCC2)cc1NC(=O)Cc1n[nH]c(=O)c2ccccc12`, with 2.9 min.
Then `Cc1noc(C)c1-c1ccc2ncnc(NCc3cccc(Cl)c3)c2c1`, with 5.19 min.
For the compound `CC(=O)N1CCN(c2ccc(OCc3nn(C)c(C)c3-c3cccc4c(CCCOc5cc(C)c(Cl)c(C)c5)c(C(=O)O)n(Cc5cccnc5)c34)cc2)CC1`, the half-life was 8.9 min.
Take `CC1=Nc2cc(C(=O)NCc3ccccc3Cl)ccc2Sc2c(C)ccc(C)c21`: the half-life is 1.96 min.
Compound `Cc1ccc(C2=CSC(NC(=O)CSc3nncn3C)=NN2)cc1` returned a half-life of 1.8 min.
In turn, `CCCCCn1c(CCCNC(=O)c2ccccc2OC)nc2ccccc21` returned a half-life of 1.31 min.
Then `O=C1Nc2ccccc2/C1=C\c1ccc([N+](=O)[O-])cc1`, with 4.92 min; and `Cc1cccc(-c2noc([C@@H]3Cc4nc[nH]c4CN3C(=O)CC(C)(C)CC(=O)O)n2)c1`, with above 30 min; and `CCOc1ccc(CCNC(=O)c2cc3sccc3n2C(C)C)cc1OCC`, with 1.7 min.
Then `CC(CNC(=O)C1CCN(Cc2cc3ccccc3n2Cc2ccccc2)CC1)c1ccccc1` (configuration not stated), with 1.15 min; and `CC(=O)c1c(C)[nH]c(C(=O)Nc2cccc([S+](=O)([O-])Nc3ccccn3)c2)c1C`, with above 30 min.
In the case of `COc1cccc(-c2nc3cc(NC(=O)c4ccc(C)c([N+](=O)[O-])c4)ccc3o2)c1`, the half-life was above 30 min.
Turning to `CCOc1ccc(Nc2nc(C)c(NC(=O)c3ccc(C)cc3)c(Nc3ccc(OCC)cc3)n2)cc1`, the half-life came out at 8.86 min.
Then `Cc1ccc(NS(=O)(=O)c2ccc3c(c2)NC(=O)CO3)cc1C`, with 3.13 min; and `Cn1cnc(S(=O)(=O)Nc2cnccc2C(=O)Nc2nc(-c3ccccc3)cs2)c1`, with above 30 min; and `O=C(Cc1ccc(Cl)c(Cl)c1)Nc1ccc(S(=O)(=O)Nc2cccc(O)c2)cc1`, with 10 min.
Then `O=C(Nc1ccc(OC(F)(F)Cl)cc1)c1cnc(N2CC[C@@H](O)C2)c(-c2ccn[nH]2)c1`, with above 30 min; and `COc1cccc(C(=O)Nc2nc(-c3nnn(-c4ccccc4C(F)(F)F)c3C)ns2)c1`, with above 30 min; and `CC(=O)c1c(C)[nH]c(C(=O)Nc2cccc([S+](=O)([O-])Nc3ccccc3C)c2)c1C`, with 4.4 min.
Then `COCc1cc(C)nc(SCC(=O)c2ccc(O)c(O)c2)c1C#N`, with 19 min; and `CC(=O)c1sc(NC(=O)c2ccco2)nc1-c1ccccc1`, with 1.8 min.
In turn, `O=C(Nc1ncc(Cc2ccc(C(F)(F)F)cc2)s1)c1cccc(-c2ccccc2)c1` returned a half-life above 30 min.
Then `c1cc(-c2cc(-c3ccncc3)c3cncn3c2)c2[nH]ncc2c1`, with 10.1 min; and `CCCSc1nc(N[C@@H]2C[C@H]2c2ccc(F)c(F)c2)c2nnn([C@@H]3C[C@H](OCCO)[C@@H](O)[C@H]3O)c2n1`, with above 30 min; and `COc1ccc(O)c2c(=O)c3c(OC)cc4c(c3oc12)C1C=COC1O4` (configuration not stated), with 2.79 min.
Then `CS(=O)(=O)c1ccc(-c2csc(N3CCC(C(N)=O)CC3)n2)cc1`, with above 30 min; and `O=[S+]([O-])(Nc1ccccc1)c1ccc(NCc2cccc(Cl)c2F)cc1`, with 4.5 min.
Then `O=C(O)c1cccc(-c2noc(-c3ccccc3F)n2)c1`, with above 30 min.
For the compound `O=C1Nc2ccc(Cl)cc2/C1=C\c1cc(Cl)c(O)c(Cl)c1`, the half-life was above 30 min.
Then `Cc1cccc(C)c1Nc1c(-c2cccs2)nc2ncccn12`, with 3.72 min; and `CCOC(=O)CCNc1cc(N2CCc3ccccc3CC2)nc(-c2ccccn2)n1`, with 1.5 min.

Values taken from PubChem BioAssay AID1508591.
